Measurements reported in patent US8673889B2, “BLT2-mediated disease, BLT2 binding agent and the compound” (Ono Pharmaceutical Co., Ltd., priority 2004, dated 2014).

Assays:
Assay type in all cases: cell-based
BLT2 [1] = target: T1, BLT2 (Homo sapiens, UniProt Q9NPC1); test: Evaluation of BLT2 agonistic activity by monitoring the variation of intracellular Ca2+ concentration; set-up: expressed in transfected cells; details: for BLT2 agonistic activity: classification of the compounds (1) to (46)
T1 sequence (Q9NPC1 1-358): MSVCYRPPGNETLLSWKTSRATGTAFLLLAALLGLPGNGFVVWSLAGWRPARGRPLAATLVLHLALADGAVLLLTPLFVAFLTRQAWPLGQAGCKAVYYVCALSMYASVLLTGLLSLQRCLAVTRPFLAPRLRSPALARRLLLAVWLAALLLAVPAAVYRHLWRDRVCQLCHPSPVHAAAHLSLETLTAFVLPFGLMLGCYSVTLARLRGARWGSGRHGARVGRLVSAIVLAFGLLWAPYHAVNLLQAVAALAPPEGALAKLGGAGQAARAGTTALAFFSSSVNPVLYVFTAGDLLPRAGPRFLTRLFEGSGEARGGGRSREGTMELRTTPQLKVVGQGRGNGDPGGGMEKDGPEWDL

BLT1 [2] = target: T2, BLT1 (Homo sapiens, UniProt Q15722); test: BLT1 antagonistic activity measured by the same way (intracellular Ca2+); details: measured by the same way as BLT2
Protocol: (§1) The receptor antagonist activity was evaluated by using human BLT2 gene-overexpressing Chinese Hamster Ovar (CHO) cells (see J. Exp. Med. Volume 192, Number 3 2000, and 421-.). BLT2-expressing cells were cultured in Ham 's F1 medium (GIBCO BRL and No. 11765-047) containing 10% FBS (fetal bovine serum), penicillin/streptomycin and blasticidin (5 μg/ml). First, to make the cells to take Fura2-AM (Dojindo and No. 348-05831), the cells were incubated in 5 μM Fura2-AM solution (Ham's F1 medium containing 10% FBS, 20 mM HEPES buffer (pH7.4) and 2.5 mM probenecid (Sigma and No. P-8761)) at 37° C. for 60 minutes. Then, the cells were washed once with Hanks solution containing 20 mM HEPES buffer (pH7.4) and 2.5 mM probenecid, and soaked in Hanks solution until assay. The plate was sat up on fluorescent drug screening system (Hamamatsu Photonics FDSS-2000) and measured without any stimulation for 30 seconds, to which the compound solution of the present invention was added. […] The compound of the present invention was dissolved to dimethylsulfoxide (DMSO) and added in order that the final concentration is […]. […] IC50 value is a concentration of the compound of the present invention in which the inhibition ratio is 50%. Also, BLT1 antagonistic activity was measured by the same way.

BLT2 [3] = target: T1, BLT2; test: Evaluation of BLT2 antagonistic activity by monitoring the variation of intracellular Ca2+ concentration; set-up: expressed in transfected cells; host or cells: CHO cells
Protocol: as §1

mBLT2 [4] = target: T3, mBLT2 (Mus musculus, UniProt Q9JJL9); test: Measurement of intracellular Ca2+ concentration in mBLT2-expressing CHO cells; details: FIG. 4, read-out: EC50 value, rise of the intracellular calcium concentration
T3 construct: mBLT2 ORF was amplified by PCR using a sense primer having BamHI restriction enzyme site; expressed in transfected cells
T3 sequence (Q9JJL9 1-360): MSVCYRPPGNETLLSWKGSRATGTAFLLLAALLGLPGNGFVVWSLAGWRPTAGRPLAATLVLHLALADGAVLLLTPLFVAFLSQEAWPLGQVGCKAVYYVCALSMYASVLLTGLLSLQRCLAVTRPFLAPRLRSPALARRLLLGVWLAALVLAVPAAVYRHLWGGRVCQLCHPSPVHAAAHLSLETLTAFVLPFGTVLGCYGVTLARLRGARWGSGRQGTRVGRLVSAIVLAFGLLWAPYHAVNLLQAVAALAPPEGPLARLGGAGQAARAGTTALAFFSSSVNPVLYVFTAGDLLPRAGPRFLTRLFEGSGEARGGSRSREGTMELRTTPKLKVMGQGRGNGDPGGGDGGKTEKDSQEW
Text: mBLT2 ORF was amplified by PCR using a sense primer having BamHI restriction enzyme site (sense primer; 5′-[…]-3′ (SEQ ID NO.1)) and an antisense primer having EcoRI restriction enzyme site (antisense primer; 5′-[…]-3′ (SEQ ID NO.2)). The PCR product was digested with BamHI and EcoRI and inserted in expression plasmid (pcDNA3 Invitrogen). The inserted sequence was confirmed by the DNA sequence. Plasmid DNA ([…]) was transfected into CHO cells cultured in Ham's F-12 medium containing 10% fetal bovine serum and antibiotic (streptomycin (100 μg/mL) and penicillin (100 μg/L)) in cell culture plates (6 cm). The resistant strains were obtained by culturing for 2 weeks in the existence of antibiotic (G418 [Wako], 1 mg/mL). […]
mBLT2-expressing CHO cells prepared by Biological Example 3 were cultured in modified Hepes-Tyrode's BSA buffer (Hepes-NaOH (25 mM, pH7.4), NaCl (140 mM), KCl (2.7 mM), CaCl2(10 nM), NaHCO3(12 mM), D-Glucose (5.6 mM), NaH2PO4(0.37 mM), MgCl2(0.49 mM), cremophour (0.01%), fatty acid-free BSA (fraction V, 0.1w/v %)) containing fluorochrome (Fura-2 AM [Dojin], 3 μm) at 37° C. for 2 hours to make to take fluorochrome. […] Dimethylsulfoxide (DMSO) solution (5 μL) containing ligand was added to the cell suspension, of which the intracellular calcium concentration was monitored (excitation wavelength 340 nm and 380 nm and fluorescent wave-length 510 nm).

mBLT2 [5] = target: T3, mBLT2; test: ERK phosphorylation (1) in mBLT2-expressing CHO cells; details: ligand 5 minutes, FIG. 5
Text: mBLT2 ORF was amplified by PCR using a sense primer having BamHI restriction enzyme site (sense primer; 5′-[…]-3′ (SEQ ID NO.1)) and an antisense primer having EcoRI restriction enzyme site (antisense primer; 5′-[…]-3′ (SEQ ID NO.2)). The PCR product was digested with BamHI and EcoRI and inserted in expression plasmid (pcDNA3 Invitrogen). The inserted sequence was confirmed by the DNA sequence. Plasmid DNA ([…]) was transfected into CHO cells cultured in Ham's F-12 medium containing 10% fetal bovine serum and antibiotic (streptomycin (100 μg/mL) and penicillin (100 μg/L)) in cell culture plates (6 cm). The resistant strains were obtained by culturing for 2 weeks in the existence of antibiotic (G418 [Wako], 1 mg/mL). The stable expressing strains were obtained by culturing 19 obtained resistant strains with limiting dilution method.

mBLT1 = target: T4, mBLT1 (Mus musculus, UniProt O88855); test: ERK phosphorylation (1) in mBLT1-expressing CHO cells; details: ligand 5 minutes, FIG. 5
T4 construct: expressed in transfected cells; host or cells: CHO cells

[6] = tested on: mouse primary culture keratinocytes; test: ERK phosphorylation (2) in mouse primary culture keratinocytes; details: FIG. 7
BLT1 [7] = target: T2, BLT1; test: BLT1 agonistic activity measured by the same way (intracellular Ca2+); details: measured by the same way as BLT2

T2 sequence (Q15722 whole entry, species assumed): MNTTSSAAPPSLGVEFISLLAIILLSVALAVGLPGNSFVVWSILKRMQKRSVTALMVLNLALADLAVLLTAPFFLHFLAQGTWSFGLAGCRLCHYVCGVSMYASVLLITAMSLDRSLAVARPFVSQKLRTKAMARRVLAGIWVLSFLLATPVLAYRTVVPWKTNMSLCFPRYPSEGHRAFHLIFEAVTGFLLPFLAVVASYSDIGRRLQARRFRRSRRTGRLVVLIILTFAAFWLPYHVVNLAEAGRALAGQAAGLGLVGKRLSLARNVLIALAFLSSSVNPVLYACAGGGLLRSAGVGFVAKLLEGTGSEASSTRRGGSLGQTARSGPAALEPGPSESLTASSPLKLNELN
T4 sequence (O88855 whole entry): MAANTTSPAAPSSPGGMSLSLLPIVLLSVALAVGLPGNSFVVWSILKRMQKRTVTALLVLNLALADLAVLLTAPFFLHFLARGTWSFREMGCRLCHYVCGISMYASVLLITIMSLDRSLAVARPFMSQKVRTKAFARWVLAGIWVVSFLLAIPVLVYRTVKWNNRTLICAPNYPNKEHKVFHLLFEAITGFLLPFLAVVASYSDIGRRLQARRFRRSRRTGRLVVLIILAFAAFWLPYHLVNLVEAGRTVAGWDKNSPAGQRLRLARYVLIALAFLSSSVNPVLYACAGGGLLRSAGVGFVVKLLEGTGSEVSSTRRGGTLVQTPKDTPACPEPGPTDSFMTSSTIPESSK

| BLT2 agonistic activity (BLT2 [1]) | SMILES | also measured |
| --- | --- | --- |
| BLT2 agonistic activity | CCCCN(Cc1ccc(-c2ccccc2-c2nnn[nH]2)cc1)C(=O)Nc1ccccc1O [(39), N-butyl-N′-(2-hydroxyphenyl)-N-{[2′-(1H-tetrazol-5-yl)biphenyl-4-yl]methyl}urea] | – |
| BLT2 agonistic activity | CCCCN(Cc1ccc(-c2ccccc2-c2nnn[nH]2)cc1)C(=O)N[C@@H](C)c1ccccc1 [(21), N-butyl-N′-[(1S)-1-phenylethyl]-N-{[2′-(1H-tetrazol-5-yl)biphenyl-4-yl]methyl}urea] | – |
| BLT2 agonistic activity | CCCCN(Cc1ccc(-c2ccccc2-c2nnn[nH]2)cc1)C(=O)NCCc1ccccc1 [(5), N-butyl-N′-(2-phenylethyl)-N-{[2′-(1H-tetrazol-5-yl)biphenyl-4-yl]methyl}urea] | – |
| BLT2 agonistic activity | CCCCN(Cc1ccc(-c2ccccc2-c2nnn[nH]2)cc1)C(=O)Nc1ccc(C)cc1 [(20), N-butyl-N′-(4-methylphenyl)-N-{[2′-(1H-tetrazol-5-yl)biphenyl-4-yl]methyl}urea] | – |
| – | O=C([O-])c1ccc(-c2cccc(CN(CCCc3ccccc3)C(=O)CCc3ccccc3)c2)cc1.[Na+] [Example 1(32), sodium 3′-{[(3-phenylpropanoyl)(3-phenylpropyl)amino]methyl}-1,1′-biphenyl-4-carboxylate] | BLT1 antagonistic activity (BLT1 [2]): did not have BLT1 antagonistic activity; IC50 (BLT2 [3]): 1.8 µM |
| BLT2 agonistic activity | CCCCN(Cc1ccc(-c2ccccc2-c2nnn[nH]2)cc1)C(=O)Nc1ccc(F)c(F)c1 [(30), N-butyl-N′-(3,4-difluorophenyl)-N-{[2′-(1H-tetrazol-5-yl)biphenyl-4-yl]methyl}urea] | – |
| BLT2 agonistic activity | CCCCN(Cc1ccc(-c2ccccc2-c2nnn[nH]2)cc1)C(=O)NC1CCCCC1 [(12), N-butyl-N′-cyclohexyl-N-{[2′-(1H-tetrazol-5-yl)biphenyl-4-yl]methyl}urea] | – |
| BLT2 agonistic activity | CCCCN(Cc1ccc(-c2ccccc2-c2nnn[nH]2)cc1)C(=O)Nc1ccccc1 [(13), N-butyl-N′-phenyl-N-{[2′-(1H-tetrazol-5-yl)biphenyl-4-yl]methyl}urea] | – |
| BLT2 agonistic activity | CCCCN(Cc1ccc(-c2ccccc2-c2nnn[nH]2)cc1)C(=S)NCC(=O)OC [(10), methyl N-[(butyl {[2′-(1H-tetrazol-5-yl)biphenyl-4-yl]methyl}amino)carbonothioyl]glycinate] | – |
| BLT2 agonistic activity | CCCCNC(=O)N(CCCC)Cc1ccc(-c2ccccc2-c2nnn[nH]2)cc1 [(11), N,N′-dibutyl-N-{[2′-(1H-tetrazol-5-yl)biphenyl-4-yl]methyl}urea] | – |
| BLT2 agonistic activity | CCCCN(Cc1ccc(-c2ccccc2-c2nnn[nH]2)cc1)C(=O)NCCc1ccc(O)cc1 [(9), N-butyl-N′-[2-(4-hydroxyphenyl)ethyl]-N-{[2′-(1H-tetrazol-5-yl)biphenyl-4-yl]methyl}urea] | – |
| – | CCCCC/C=C\C[C@@H](O)/C=C/C=C/C=C\[C@@H](O)CCCC(=O)O [LTB4, 5-[S], 12-[R]-dihydroxy-6,14-cis-8,10-trans-eicosatetraenoic acid, reference compound] | EC50 (mBLT2 [4]): 0.121 µM; ERK phosphorylation (mBLT2 [5]): induced; ERK phosphorylation (mBLT1): induced; ERK phosphorylation [6]: induced ERK phosphorylation |
| BLT2 agonistic activity | CCCCN(Cc1ccc(-c2ccccc2-c2nnn[nH]2)cc1)C(=O)NCC1CCCO1 (stereo not drawn) [(43), N-butyl-N′-(tetrahydrofuran-2-ylmethyl)-N-{[2′-(1H-tetrazol-5-yl)biphenyl-4-yl]methyl}urea] | – |
| BLT2 agonistic activity | CCCCN(Cc1ccc(-c2ccccc2-c2nnn[nH]2)cc1)C(=O)NC(C)C [(7), N-butyl-N′-isopropyl-N-{[2′-(1H-tetrazol-5-yl)biphenyl-4-yl]methyl}urea] | – |
| – | O=C(Cc1ccccc1)NCc1ccc(-c2ccccc2C(=O)O)cc1 [Example 13, 4′-{[(phenylacetyl)amino]methyl}-1,1′-biphenyl-2-carboxylic acid] | BLT1 agonistic activity (BLT1 [7]): did not have BLT1 agonistic activity; IC50 (BLT2 [1]): 0.045 µM |
| BLT2 agonistic activity | CCCCN(Cc1ccc(-c2ccccc2-c2nnn[nH]2)cc1)C(=O)NCCN1CCOCC1 [(45), N-butyl-N′-(2-morpholin-4-ylethyl)-N-{[2′-(1H-tetrazol-5-yl)biphenyl-4-yl]methyl}urea] | – |
| BLT2 agonistic activity | CCCCN(Cc1ccc(-c2ccccc2-c2nnn[nH]2)cc1)C(=O)Nc1ccc(OC)cc1 [(17), N-butyl-N′-(4-methoxyphenyl)-N-{[2′-(1H-tetrazol-5-yl)biphenyl-4-yl]methyl}urea] | – |
| BLT2 agonistic activity | CCCCN(Cc1ccc(-c2ccccc2-c2nnn[nH]2)cc1)C(=O)Nc1cccc(OC)c1 [(16), N-butyl-N′-(3-methoxyphenyl)-N-{[2′-(1H-tetrazol-5-yl)biphenyl-4-yl]methyl}urea] | – |
| BLT2 agonistic activity | CCCCN(Cc1ccc(-c2ccccc2-c2nnn[nH]2)cc1)C(=O)NC(=O)OCC [(34), ethyl[(butyl{[2′-(1H-tetrazol-5-yl)biphenyl-4-yl]methyl}amino)carbonyl]carbamate] | – |
| BLT2 agonistic activity | CCCCN(Cc1ccc(-c2ccccc2-c2nnn[nH]2)cc1)C(=O)Nc1sc2c(c1C(=O)O)CCCC2 [(40), 2-{[(butyl{[2′-(1H-tetrazol-5-yl)biphenyl-4-yl]methyl}amino)carbonyl]amino}-4,5,6,7-tetrahydro-1-benzothiophen-3-carboxylic acid] | – |
| BLT2 agonistic activity | CCCCN(Cc1ccc(-c2ccccc2-c2nnn[nH]2)cc1)C(=O)NCc1ccccc1 [(22), N′-benzyl-N-butyl-N-{[2′-(1H-tetrazol-5-yl)biphenyl-4-yl]methyl}urea] | – |

| SMILES | BLT2 agonistic activity (BLT2 [1]) | also measured |
| --- | --- | --- |
| CCCCN(Cc1ccc(-c2ccccc2-c2nnn[nH]2)cc1)C(=O)Nc1cccc(C(=O)OCC)c1 [(19)] | BLT2 agonistic activity | – |
